This note sets out measurements from patent US20160279187A1, “CALPAIN INHIBITORS FOR IBD AND COLORECTAL CANCER TREATMENT” (UNIVERSITY OF HAWAII, priority 2013, published 2016).

Structures are written as SMILES. Where a SMILES comes first, the peptide text is derived from it. The star is where a group is joined. Cbz = O=C(OCc1ccccc1)*; CH2F = FC*

Assay [1] concerns AOM/DSS induced colitis/CAC. In words: AOM/DSS induced colitis/CAC model. Type of assay: in vivo, C57BL/6J mice. The following applies: for CAC pathology (blinded 4-point histological score) / total tumor volume (in words): day 63, vs vehicle control. As for the experimental part:
A mice colony generated from C57BL/6J mice (Jackson Laboratories) was maintained in the University of Hawaii vivarium. The mouse AOM/DSS induced colitis/CAC model was adapted from a previously described protocol (Fenouille, N. et al. J. Pathol. 227, 118-129, 2012). In brief, 8-10 wk old male mice were injected with AOM (A5486, Sigma) (12 mg/kg) on day 0 and were then treated with three 5 day cycles of 2% DSS (CAS#9011-18-1; MP Biomedicals, Santa Ana, Calif.) in drinking water alternated with regular water over 63 days. Mice in the intervention group were interperitonal injected 5 days per week with 0.75 mg/kg calpain-2 inhibitor (Calpain Inhibitor IV, zLLY-CH2F; Millipore EMD part number 208724) beginning on day 8 and then throughout the entire protocol. Control mice were injected with AOM on day 0 and received regular drinking water throughout the protocol. All animal protocols were approved by the University of Hawaii Institutional Animal Care and Use Committee.
(§1) Bone marrow derived macrophages (BMDM) were prepared as previously described by methods known to those skilled in the art. On day 5 of culture, 2×10^6 BMDM were seeded in 6-well plates and the following day were primed for 18 h with TNFα (20 ng/mL), followed by 1 h stimulation with E. faecalis (1 μg/mL; ATCC). Stimulation with E. faecalis was conducted in the presence of the zLLY-CH2F calpain-2 inhibitor (20 μg/mL) or DMSO as a control. Media was removed from treated BMDM, centrifuged at 300×g for 5 min and supernatent analyzed using the Cytometric Bead Array Mouse Inflammation Kit (BD Biosciences, San Jose, Calif.). Cytokine data were analyzed using Flowjo software (Ashland, Oreg.) and GraphPad Prism version 4.0 (GraphPad, La Jolla, Calif.). Cell pellets were lysed and analyzed for IκB and NFκB by Western blot as previously described (Miyazaki, T. et al. Journal of Atherosclerosis and Thrombosis 20, 228-237, 2013). In other experiments, mouse CT-26.WT and human HT-29 colon cancer cells were plated in 96-well plates at 10^3 cells/well with 20 μg/mL inhibitor or DMSO, followed by analyses for IκB and NFκB by Western blot as described above for BMDM. For proliferation assays, fresh media with 20 μg/mL inhibitor or DMSO were added every 2 d. Each day 4 wells were quantified using Celltiter MTS reagent (Promega) and the resulting signal was used to generate a proliferation curve. Calpain activity was measured using a Calpain activity assay kit (BioVision, Inc., Milpitas, Calif.) as previously described. Colons were harvested on day 4 and calpain activity measured. Enzyme-linked immunosorbant assay (ELISA) analyses of cecum hemoglobin has been previously described (Miyazaki, T. et al. Journal of Atherosclerosis and Thrombosis 20, 228-237, 2013).
On day 63, colons were dissected, cut longitudinally, and then were spread out on clear plastic. The colons were washed with PBS using transfer pipettes and images captured using an Infinity 2 microscope mounted camera (Lumenara, Madrid, Spain) in line with a Stemi 2000-C dissecting scope (Zeiss, Jena, Germany). Separate images were assembled into continuous colon images using Photoshop software (Adobe Systems Inc.). For histology, colon tissues were washed with PBS and fixed in 10% buffered formalin. Standard H&E staining of paraffin-embedded tissue samples was conducted as previously described (Leloup, L. & Wells, A., Expert Opinion on Therapeutic Targets 15, 309-323, 2011). Five H&E stained sections from each mouse were blindly scored for colitis pathology as previously described (Liu, T., Mendes, D. E. & Berkman, C. E. Int. J. Oncol. 44, 467-472, 2014). […]

For assay [2], the system named is HT-29 human colorectal cancer cells. The assay is described as follows: proliferation assay (MTS), HT-29. Type of assay: cell-based. The following applies: HT-29, 20 μg/ml, vs DMSO. As for the experimental part: as §1, with “In other experiments, mouse CT-26.WT and human HT-29 colon cancer cells were plated in 96-well plates at 10^3 cells/well with 20 μg/mL inhibitor or DMSO, followed by analyses for IκB and NFκB by Western blot as described above for BMDM. For proliferation assays, fresh media with 20 μg/mL inhibitor or DMSO were added every 2 d.” left out, “Enzyme-linked immunosorbant assay (ELISA) analyses of cecum hemoglobin has been previously described (Miyazaki, T. et al. Journal of Atherosclerosis and Thrombosis 20, 228-237, 2013).” left out

On to `CC(C)C[C@H](NC(=O)OCc1ccccc1)C(=O)N[C@@H](CC(C)C)C(=O)N[C@@H](Cc1ccc(O)cc1)C(=O)CF` [zLLY-CH2F, Z-LLY-CH2F] (Cbz-Leu-Leu-Tyr-CH2F), for which the “weight recovery after each administration of DSS” value in assay [1] (0.75 mg/kg i.p. from day 8, vs vehicle control) is “significant increase”. Besides, the “average number of tumors/mouse” value in assay [1] (day 63) is listed as 2 tumors/mouse. In addition, in assay [1] (day 63, 0.75 mg/kg i.p., vs vehicle control), the “hemoglobin in cecums by ELISA (bloody diarrhea)” value is “significantly lower”. Besides, in assay [1] (day 63, i.p. 5 days on/2 days off from day 8, vs vehicle control), the “total tumor volume reduced by” value turned out to be 70%. Besides, the “CAC pathology (blinded 4-point histological score)” value in assay [1] is listed as “significantly lower”; in assay [1] (listed as calpain-2 inhibitor) it was “significantly alleviated”. The “total tumor volume (in words)” value in assay [1] is on record as “significantly lower”; in assay [1] (listed as calpain-2 inhibitor), “significant reduction”; in assay [1] (listed as m-calpain inhibitor), “very significant tumor reduction”. The “colitis pathology and inflammatory infiltration (histology)” value in assay [1] (day 63 colon, vs vehicle control) is recorded as “significant decrease”. Also, in assay [2], the proliferation result was “reduction”.
